In article PMC7259758 (PLoS ONE, 2020):

How the values were obtained:
AKT3 = target: T1, AKT3 (Homo sapiens, UniProt Q9Y243); assay: Radiometric protein kinase assay (Eurofins); assay type: biochemical; details: ATP 45 μM
T1 construct: purchased Eurofins, Dundee, Scotland
Procedure: (§1) Enzymatic biochemical activities were evaluated in radiometric protein kinase assays (Eurofins, Dundee, Scotland). Kinases are incubated with buffer, substrate and [γ-^33P]-ATP (specific activity approx. 500 cpm/pmol, concentration as required). The reaction is initiated by the addition of the MgATP mix. After incubation for 40 minutes at room temperature, the reaction is stopped by the addition of 3% phosphoric acid solution. 10 μL of the reaction is then spotted onto a P30 filtermat and washed three times for 5 minutes in 75 mM phosphoric acid and once in methanol prior to drying and scintillation counting. All compounds are prepared to 50x final assay concentration in 100% DMSO. Positive control wells contain all components of the reaction with 2% DMSO. Blank wells contain all components of the reaction, with a reference inhibitor replacing the compound of interest. Each kinase is assigned a standard assay concentration of ATP within 20 μM of its apparent Km. Compounds were screened at 1 μM in duplicate or tested at 10 concentrations at half log dilution starting from 10 μM in singlicate. Dose response curves were fitted with four parameter logistic curve to obtain IC50 values. […]
(§2) Staurosporine is used as reference for all tested enzymes except for SRPK3 (reference inhibitor: K-252a. Nocardiopsis sp), NEK2 (reference inhibitor: […]), and CK2, CK2α2, MAPK1, MAPK2 (reference inhibitor: PKR Inhibitor). See Table 1 below for additional details.

CK2 (h) = target: T2, CK2 (h) (Homo sapiens, UniProt P68400); assay: Radiometric protein kinase assay (Eurofins); assay type: biochemical; details: 40 min; ATP 10 μM; read-out: CK2 IC50
T2 construct: purchased Eurofins, Dundee, Scotland
Procedure: as §1, §2

CLK3(h) = target: T3, CLK3(h) (Homo sapiens, UniProt P49761); assay: Radiometric protein kinase assay (Eurofins); assay type: biochemical; details: ATP 90 μM
T3 construct: purchased Eurofins, Dundee, Scotland
Procedure: as §1, §2

CLK4(h) = target: T4, CLK4(h) (Homo sapiens, UniProt Q9HAZ1); assay: Radiometric protein kinase assay (Eurofins); assay type: biochemical; details: ATP 10 μM
T4 construct: purchased Eurofins, Dundee, Scotland
Procedure: as §1, §2

DYRK1B (h) = target: T5, DYRK1B (h) (Homo sapiens, UniProt Q9Y463); assay: Radiometric protein kinase assay (Eurofins); assay type: biochemical; details: ATP 45 μM
T5 construct: purchased Eurofins, Dundee, Scotland
Procedure: as §1, §2

DYRK2 (h) = target: T6, DYRK2 (h) (Homo sapiens, UniProt Q92630); assay: Radiometric protein kinase assay (Eurofins); assay type: biochemical; details: ATP 15 μM
T6 construct: purchased Eurofins, Dundee, Scotland
T6 sequence (Q92630 1-601): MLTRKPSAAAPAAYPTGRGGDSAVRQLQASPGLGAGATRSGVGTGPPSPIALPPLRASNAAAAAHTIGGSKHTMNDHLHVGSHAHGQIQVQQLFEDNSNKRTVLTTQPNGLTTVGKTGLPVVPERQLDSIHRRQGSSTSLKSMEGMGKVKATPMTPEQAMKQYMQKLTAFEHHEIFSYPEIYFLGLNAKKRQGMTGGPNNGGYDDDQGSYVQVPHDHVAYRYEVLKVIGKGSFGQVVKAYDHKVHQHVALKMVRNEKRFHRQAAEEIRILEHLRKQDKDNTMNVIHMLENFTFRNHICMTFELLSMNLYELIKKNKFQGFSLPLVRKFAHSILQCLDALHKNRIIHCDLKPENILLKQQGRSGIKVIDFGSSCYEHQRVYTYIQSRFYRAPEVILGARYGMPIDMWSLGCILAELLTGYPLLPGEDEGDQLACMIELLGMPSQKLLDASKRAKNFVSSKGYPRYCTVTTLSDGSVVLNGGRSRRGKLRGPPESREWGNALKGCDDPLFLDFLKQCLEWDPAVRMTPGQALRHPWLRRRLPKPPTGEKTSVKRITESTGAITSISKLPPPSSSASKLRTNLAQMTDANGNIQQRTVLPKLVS
Procedure: as §1, §2

GSK3β(h) = target: T7, GSK3β(h) (Homo sapiens, UniProt P49841); assay: Radiometric protein kinase assay (Eurofins); assay type: biochemical; details: 40 min; ATP 15 μM; read-out: GSK3β(h) IC50
T7 construct: purchased Eurofins, Dundee, Scotland

PYK2 (h) = target: T8, PYK2 (h) (Homo sapiens, UniProt Q14289); assay: Radiometric protein kinase assay (Eurofins); assay type: biochemical; details: 40 min; ATP 90 μM; read-out: PYK2 IC50
T8 construct: purchased Eurofins, Dundee, Scotland

PAK4 = details: read-out: PAK4 IC50 (previously reported designated target data); cited from earlier work
phosphorylation of SF3B1 = assay: Western blot of nuclear extracts, phosphor-SF3B1; details: HCT116 and Rh18 cells, 4 h; SD6 10 μM, compound 1 10 μM, compound 2 5 μM
[1] = system: triple-exon skipping of MDM2 pre-mRNA in SK-MEL-2/Luc-MDM2 cells; assay: TESLR (Triple Exon Skipping Luciferase Reporter) dose response; details: Homo sapiens, SK-MEL-2, 4 h, read-out: TESLR EC50
PAK4 (h) = target: T9, PAK4 (h) (Homo sapiens, UniProt O96013); assay: Radiometric protein kinase assay (Eurofins); assay type: biochemical; details: 40 min; ATP 10 μM; read-out: PAK4 IC50
T9 construct: purchased Eurofins, Dundee, Scotland
T9 sequence (O96013 whole entry): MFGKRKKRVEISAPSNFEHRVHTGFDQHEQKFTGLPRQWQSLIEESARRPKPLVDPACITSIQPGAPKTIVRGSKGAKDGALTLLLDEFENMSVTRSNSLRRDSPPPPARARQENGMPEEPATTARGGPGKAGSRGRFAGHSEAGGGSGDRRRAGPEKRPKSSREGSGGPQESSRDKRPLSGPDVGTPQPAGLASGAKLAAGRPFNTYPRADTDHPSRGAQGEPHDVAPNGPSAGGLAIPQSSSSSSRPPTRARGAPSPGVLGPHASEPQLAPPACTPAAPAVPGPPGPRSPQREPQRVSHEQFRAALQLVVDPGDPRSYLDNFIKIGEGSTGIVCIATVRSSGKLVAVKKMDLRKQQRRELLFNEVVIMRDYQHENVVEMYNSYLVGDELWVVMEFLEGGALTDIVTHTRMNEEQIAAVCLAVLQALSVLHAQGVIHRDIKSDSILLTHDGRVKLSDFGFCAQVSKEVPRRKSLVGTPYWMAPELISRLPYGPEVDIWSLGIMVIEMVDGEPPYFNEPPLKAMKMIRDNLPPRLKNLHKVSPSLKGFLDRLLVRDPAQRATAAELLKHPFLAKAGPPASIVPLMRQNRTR

T7 sequence (P49841 whole entry): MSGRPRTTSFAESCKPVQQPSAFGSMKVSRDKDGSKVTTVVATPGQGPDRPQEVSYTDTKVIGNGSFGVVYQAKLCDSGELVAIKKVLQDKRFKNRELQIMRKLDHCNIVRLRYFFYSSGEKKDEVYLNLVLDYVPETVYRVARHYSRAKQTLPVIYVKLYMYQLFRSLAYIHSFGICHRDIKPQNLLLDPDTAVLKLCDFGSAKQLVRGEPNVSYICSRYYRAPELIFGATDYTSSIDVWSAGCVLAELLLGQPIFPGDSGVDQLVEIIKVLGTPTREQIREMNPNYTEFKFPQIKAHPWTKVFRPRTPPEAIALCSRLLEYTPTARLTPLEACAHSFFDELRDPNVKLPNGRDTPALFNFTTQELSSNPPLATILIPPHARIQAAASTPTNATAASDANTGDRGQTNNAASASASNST
T4 sequence (Q9HAZ1 whole entry): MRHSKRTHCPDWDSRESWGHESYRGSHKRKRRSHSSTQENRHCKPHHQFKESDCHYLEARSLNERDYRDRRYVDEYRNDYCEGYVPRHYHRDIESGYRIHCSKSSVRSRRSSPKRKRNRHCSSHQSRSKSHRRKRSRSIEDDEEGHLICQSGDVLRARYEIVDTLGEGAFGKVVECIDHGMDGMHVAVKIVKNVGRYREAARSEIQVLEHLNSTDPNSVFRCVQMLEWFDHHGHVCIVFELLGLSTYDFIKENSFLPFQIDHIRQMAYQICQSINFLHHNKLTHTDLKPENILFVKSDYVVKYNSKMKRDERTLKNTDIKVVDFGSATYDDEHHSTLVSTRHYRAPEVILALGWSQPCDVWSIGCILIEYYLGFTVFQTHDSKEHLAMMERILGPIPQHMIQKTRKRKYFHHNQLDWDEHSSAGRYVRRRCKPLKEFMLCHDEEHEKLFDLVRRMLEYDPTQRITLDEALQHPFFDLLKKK
T5 sequence (Q9Y463 whole entry): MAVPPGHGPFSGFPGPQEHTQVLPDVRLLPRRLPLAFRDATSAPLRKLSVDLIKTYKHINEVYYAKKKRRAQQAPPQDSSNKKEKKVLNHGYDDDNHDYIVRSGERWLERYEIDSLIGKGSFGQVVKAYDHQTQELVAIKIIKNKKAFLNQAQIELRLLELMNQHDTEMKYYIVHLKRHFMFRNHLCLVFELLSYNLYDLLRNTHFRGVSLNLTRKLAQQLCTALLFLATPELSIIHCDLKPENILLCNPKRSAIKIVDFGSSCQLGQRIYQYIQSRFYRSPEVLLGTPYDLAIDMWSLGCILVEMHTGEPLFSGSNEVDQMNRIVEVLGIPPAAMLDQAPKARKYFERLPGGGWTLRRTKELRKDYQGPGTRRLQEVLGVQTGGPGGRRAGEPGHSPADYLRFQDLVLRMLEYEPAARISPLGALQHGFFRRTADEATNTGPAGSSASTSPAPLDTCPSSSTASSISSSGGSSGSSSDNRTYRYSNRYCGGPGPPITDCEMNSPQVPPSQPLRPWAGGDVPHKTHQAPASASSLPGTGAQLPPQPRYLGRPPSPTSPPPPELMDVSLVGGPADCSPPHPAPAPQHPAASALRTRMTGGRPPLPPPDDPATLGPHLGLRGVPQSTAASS
T2 sequence (P68400 whole entry): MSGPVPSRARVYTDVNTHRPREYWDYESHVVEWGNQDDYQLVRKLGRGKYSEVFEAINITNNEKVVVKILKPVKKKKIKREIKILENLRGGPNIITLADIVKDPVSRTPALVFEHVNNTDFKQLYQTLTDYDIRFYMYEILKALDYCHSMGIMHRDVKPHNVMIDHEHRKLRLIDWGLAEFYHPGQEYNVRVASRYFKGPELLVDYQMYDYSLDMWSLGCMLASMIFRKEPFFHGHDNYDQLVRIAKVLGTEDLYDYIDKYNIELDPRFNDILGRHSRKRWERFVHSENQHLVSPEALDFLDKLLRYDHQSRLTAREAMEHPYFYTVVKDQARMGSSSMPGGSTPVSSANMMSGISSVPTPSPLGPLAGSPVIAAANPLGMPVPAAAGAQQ
T2 sequence (P67870 whole entry partner): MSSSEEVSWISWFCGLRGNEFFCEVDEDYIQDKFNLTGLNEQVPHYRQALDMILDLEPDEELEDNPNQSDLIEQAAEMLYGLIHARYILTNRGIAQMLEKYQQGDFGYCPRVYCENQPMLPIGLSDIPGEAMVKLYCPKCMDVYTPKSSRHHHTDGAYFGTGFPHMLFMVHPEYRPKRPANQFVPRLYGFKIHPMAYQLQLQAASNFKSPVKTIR
T1 sequence (Q9Y243 whole entry): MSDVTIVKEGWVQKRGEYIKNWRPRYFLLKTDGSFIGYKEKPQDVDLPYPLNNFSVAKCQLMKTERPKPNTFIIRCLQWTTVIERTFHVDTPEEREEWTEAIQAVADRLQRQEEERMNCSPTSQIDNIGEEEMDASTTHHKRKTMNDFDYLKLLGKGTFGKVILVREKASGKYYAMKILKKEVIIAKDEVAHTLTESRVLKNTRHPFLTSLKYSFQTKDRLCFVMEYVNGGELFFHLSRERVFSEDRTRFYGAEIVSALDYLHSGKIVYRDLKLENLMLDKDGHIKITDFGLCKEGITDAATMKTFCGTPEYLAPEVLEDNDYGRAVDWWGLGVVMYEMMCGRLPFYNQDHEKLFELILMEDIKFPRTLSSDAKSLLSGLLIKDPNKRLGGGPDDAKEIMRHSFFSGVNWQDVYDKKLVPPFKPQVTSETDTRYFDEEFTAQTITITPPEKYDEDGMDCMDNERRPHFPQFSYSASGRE
T3 sequence (P49761 whole entry): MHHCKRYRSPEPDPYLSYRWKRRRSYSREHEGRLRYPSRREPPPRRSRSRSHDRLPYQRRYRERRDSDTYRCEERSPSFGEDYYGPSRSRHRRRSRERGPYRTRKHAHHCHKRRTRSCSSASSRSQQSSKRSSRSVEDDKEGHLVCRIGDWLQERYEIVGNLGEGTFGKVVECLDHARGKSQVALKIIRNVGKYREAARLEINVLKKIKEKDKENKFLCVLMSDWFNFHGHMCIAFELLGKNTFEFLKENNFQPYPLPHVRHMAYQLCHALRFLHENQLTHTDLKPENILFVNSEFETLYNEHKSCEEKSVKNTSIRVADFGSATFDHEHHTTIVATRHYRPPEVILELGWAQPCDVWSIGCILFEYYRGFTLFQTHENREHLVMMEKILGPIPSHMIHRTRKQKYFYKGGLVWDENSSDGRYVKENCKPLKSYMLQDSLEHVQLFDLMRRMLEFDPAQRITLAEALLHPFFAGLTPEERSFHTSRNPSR
T8 sequence (Q14289 whole entry): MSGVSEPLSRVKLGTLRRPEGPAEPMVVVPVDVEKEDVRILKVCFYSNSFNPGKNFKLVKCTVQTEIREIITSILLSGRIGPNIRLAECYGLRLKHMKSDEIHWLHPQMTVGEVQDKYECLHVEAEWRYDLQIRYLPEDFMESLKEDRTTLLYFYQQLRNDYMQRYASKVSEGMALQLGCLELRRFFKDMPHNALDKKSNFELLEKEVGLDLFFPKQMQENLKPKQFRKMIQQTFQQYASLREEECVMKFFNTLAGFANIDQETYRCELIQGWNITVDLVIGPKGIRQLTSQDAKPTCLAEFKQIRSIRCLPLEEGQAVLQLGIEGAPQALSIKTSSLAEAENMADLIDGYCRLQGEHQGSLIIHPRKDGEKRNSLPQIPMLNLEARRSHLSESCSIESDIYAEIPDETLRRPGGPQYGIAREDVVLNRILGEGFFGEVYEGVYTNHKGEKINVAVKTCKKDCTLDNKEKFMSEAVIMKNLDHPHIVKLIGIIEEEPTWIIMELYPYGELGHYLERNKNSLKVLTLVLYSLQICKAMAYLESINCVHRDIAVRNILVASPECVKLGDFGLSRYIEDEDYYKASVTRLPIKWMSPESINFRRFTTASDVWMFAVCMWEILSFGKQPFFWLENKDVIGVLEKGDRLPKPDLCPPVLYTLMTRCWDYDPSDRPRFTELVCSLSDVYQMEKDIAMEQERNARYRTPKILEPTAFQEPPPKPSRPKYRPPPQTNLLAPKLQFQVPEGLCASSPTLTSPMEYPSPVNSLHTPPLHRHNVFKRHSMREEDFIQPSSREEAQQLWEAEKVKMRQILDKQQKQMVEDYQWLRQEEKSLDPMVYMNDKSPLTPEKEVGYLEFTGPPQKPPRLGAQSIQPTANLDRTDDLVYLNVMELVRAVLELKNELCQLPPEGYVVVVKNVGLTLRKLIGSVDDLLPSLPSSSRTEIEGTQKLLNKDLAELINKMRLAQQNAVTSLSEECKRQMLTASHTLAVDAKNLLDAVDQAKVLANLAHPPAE

IC50 (AKT3) [nM] | inhibition at 1 µM (CK2 (h)) [%] | IC50 (CLK3(h)) [nM] | IC50 (CLK4(h)) [nM] | inhibition at 1 µM (DYRK1B (h); 40 min, read-out: DYRK1B IC50) [%] | inhibition at 1 µM (DYRK2 (h); 40 min, read-out: DYRK2 IC50) [%] | inhibition at 1 µM (GSK3β(h)) [%] | inhibition at 1 µM (PYK2 (h)) [%] | EC50 [1] [nM] | inhibition at 1 µM (AKT3; 40 min, read-out: AKT3 IC50) [%] | IC50 (DYRK1B (h)) [nM] | IC50 (DYRK2 (h)) [nM] | inhibition at 1 µM (PAK4 (h)) [%] | Compound | IC50 (PAK4) [nM] | Effect on phosphorylation of SF3B1 (immunoblot) (phosphorylation of SF3B1)
54 | < 50 | 485 | 48 | < 50 | < 50 | < 50 | < 50 | 3440 |  |  |  |  | Cc1nc(Nc2[nH]nc3c2CN(C(=O)N[C@H](CN(C)C)c2ccccc2)C3(C)C)c2sccc2n1 [Compound 2, PF-3758309] | […] | reduced phosphorylation of both SR and SF3B1 proteins significantly
 | < 50 | 425 | 13 |  |  | < 50 | < 50 | 9190 | < 50 | 5 | 48 | < 50 | CNC(=O)c1nn(C)c2c1C(C)(C)Cc1cnc(Nc3ccc(N4CCN(C)CC4)cc3)nc1-2 [Compound 1, milciclib] |  | reduced phosphorylation of both SR and SF3B1 proteins significantly
